For 23 molecules, IC50 results are on record in ChEMBL document CHEMBL1131031, “Indolequinone antitumor agents: reductive activation and elimination from (5-methoxy-1-methyl-4,7-dioxoindol-3-yl)methyl derivatives and hypoxia-selective cytotoxicity in vitro” (J Med Chem, 1998).

The structures appear in SMILES notation.

Assay [1] can be described thus: In vitro cytotoxicity against […] V79-379A cells determined by MTT assay in the presence of air. Type of assay: functional, cell-based. Conditions: Cricetulus griseus.
Assay [2] in a line: In vitro cytotoxicity against hypoxic V79-379A cells determined by MTT assay in the presence of nitrogen. Type of assay: functional, cell-based. The note with it: Cricetulus griseus. (Formazan colour is commonly taken as a measure of viable cells.)

The IC50 is the concentration needed to halve the response being measured. In the case of `COC1=CC(=O)c2c(c(COC(=O)Cc3ccc(-c4ccccc4)cc3)c(C)n2C)C1=O`, the IC50 in assay [1] was 14.1 µM; in assay [2], 0.66 µM.

Turning to `COC1=CC(=O)c2c(c(COC(=O)c3ccc(F)cc3)c(C)n2C)C1=O`, the IC50 in assay [1] worked out at 27 µM; in assay [2], 0.3 µM.

In the case of `CCOC(=S)SCc1c2c(n(C)c1C)C(=O)C=C(OC)C2=O`, the figures for the half-maximal inhibitory concentration (IC50) in assay [1] and in assay [2] were 67 µM and 3 µM, respectively.

For `COC1=CC(=O)c2c(c(CCl)cn2C)C1=O`, the IC50 in assay [1] was determined as 304 µM; in assay [2], 33 µM.

For `COC1=CC(=O)c2c(c(CO)cn2C)C1=O`, the IC50 was 220 µM in assay [1] and 240 µM in assay [2].

For `COC1=CC(=O)c2c(c(COC(=O)c3ccccc3F)cn2C)C1=O`, the IC50 was 0.5 µM in assay [1] and 0.04 µM in assay [2].

Turning to `COC1=CC(=O)c2c(c(COC(=O)c3ccc(F)cc3)cn2C)C1=O`, the IC50 in assay [1] stood at 0.7 µM; in assay [2] it was 0.05 µM.

In the case of `COC1=CC(=O)c2c(c(COC(=O)c3ccccc3)c(C)n2C)C1=O`, the IC50 in assay [1] was 16 µM; in assay [2], 0.2 µM.

`COC1=CC(=O)c2c(c(COC(N)=O)cn2C)C1=O`: the IC50 in assay [1] amounted to 3 µM; in assay [2], 0.04 µM.

For `COC1=CC(=O)c2c(c(COc3cccc(NC(C)=O)c3)c(C)n2C)C1=O`, the IC50 in assay [1] was 3.7 µM; in assay [2] it was 0.04 µM.

`COC1=CC(=O)c2c(c(COC(=O)c3ccccc3)c(C3CC3)n2C)C1=O`: the IC50 in assay [1] worked out at 198 µM; in assay [2], 1 µM.

In the case of `COC1=CC(=O)c2c(c(COCc3ccccc3)c(C)n2C)C1=O`, the IC50 in assay [1] stood at 225 µM; in assay [2], 410 µM.

Consider `COC1=CC(=O)c2c(c(CO)c(C)n2C)C1=O`, for which the half-maximal inhibitory concentration (IC50) turned out to be 1080 µM in assay [1] and 285 µM in assay [2].

With `COC1=CC(=O)c2c(c(COc3ccccc3)c(C)n2C)C1=O`, the figures for the IC50 in assay [1] and in assay [2] were 12 µM and 0.7 µM, respectively.

With `COC1=CC(=O)c2c(c(Cc3ccc(O)c(F)c3)c(C)n2C)C1=O`, the IC50 in assay [1] was 470 µM; in assay [2], 280 µM.

In the case of `COC1=CC(=O)c2c(c(COC(C)=O)c(C)n2C)C1=O`, the values for the IC50 in assay [1] and in assay [2] were 27 µM and 2.5 µM, respectively.

For `COC1=CC(=O)c2c(c(COc3c(Cl)cc(Cl)cc3Cl)cn2C)C1=O`, the IC50 turned out to be 0.7 µM in assay [1] and 0.08 µM in assay [2].

Take `COC1=CC(=O)c2c(c(COC(N)=O)c(C)n2C)C1=O`: the IC50 was 25 µM in assay [1] and 0.3 µM in assay [2].

In the case of `COC1=CC(=O)c2c(c(COC(=O)c3ccccc3F)c(C)n2C)C1=O`, the IC50 worked out at 164 µM in assay [1] and 2 µM in assay [2].

On to `COC1=CC(=O)c2c(c(CO)c(C3CC3)n2C)C1=O`, for which the IC50 in assay [1] is 540 µM; in assay [2], 820 µM.

For the molecule `COC1=CC(=O)c2c(c(Cc3cc(F)ccc3O)c(C)n2C)C1=O`, the IC50 in assay [1] was determined as 200 µM; in assay [2], 110 µM.

Turning to `COC1=CC(=O)c2c(c(COc3ccc(F)cc3)c(C)n2C)C1=O`, the 50% inhibitory concentration (IC50) in assay [1] is 31 µM; in assay [2], 0.85 µM.

`COC1=CC(=O)c2c(c(COC(=O)c3ccccc3)cn2C)C1=O`: the values for the IC50 in assay [1] and in assay [2] were 1.4 µM and 0.04 µM, respectively.
